{"source": "patent US20060069132A1", "about": "“Azolecarboxamide herbicides” (priority 2004, published 2006)", "key": {"barnyardgrass [1]": {"test_system": "barnyardgrass", "experiment": "Test B pre-/postemergence herbicide test", "type": "in vivo, Echinochloa crus-galli", "procedure,_shortened": "(§1)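 Pre: seeds sown, then sprayed. Post: 1–4-leaf plants (2–18 cm) sprayed at the same time. Paddy: flooded, treated at 2-leaf stage. Formulation: non-phytotoxic solvent with surfactant. Greenhouse 13–15 days; visual 0–100 score relative to controls.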"}, "Surinam grass": {"test_system": "Surinam grass", "experiment": "Test B pre-/postemergence herbicide test", "type": "in vivo, Urochloa decumbens", "conditions": "for Surinam Grass plant response rating: postemergence, visual rating", "procedure,_shortened": "(§2)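 Herbicidal effect was judged by eye on a 0–100 scale after plants stood 13 to 15 days in the greenhouse following pre- or postemergence treatment with surfactant-containing formulations.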"}, "cocklebur": {"test_system": "cocklebur", "experiment": "Test B pre-/postemergence herbicide test", "type": "in vivo, Xanthium strumarium", "procedure,_shortened": "as §1"}, "giant foxtail": {"test_system": "giant foxtail", "experiment": "Test B pre-/postemergence herbicide test", "type": "in vivo, Setaria faberi", "procedure,_shortened": "as §2"}, "lambsquarters": {"test_system": "lambsquarters", "experiment": "Test B pre-/postemergence herbicide test", "type": "in vivo, Chenopodium album", "conditions": "for Lambsquarters plant response rating: postemergence, visual rating", "procedure,_shortened": "as §2"}, "morningglory": {"test_system": "morningglory", "experiment": "Test B pre-/postemergence herbicide test", "type": "in vivo, Ipomoea coccinea", "conditions": "for Morningglory plant response rating: postemergence, visual rating", "procedure,_shortened": "as §1"}, "pigweed": {"test_system": "pigweed", "experiment": "Test B pre-/postemergence herbicide test", "type": "in vivo, Amaranthus retroflexus", "conditions": "for Pigweed plant response rating: postemergence, visual rating", "procedure,_shortened": "as §2"}, "velvetleaf": {"test_system": "velvetleaf", "experiment": "Test B pre-/postemergence herbicide test", "type": "in vivo, Abutilon theophrasti", "conditions": "for Velvetleaf plant response rating: postemergence, visual rating", "procedure,_shortened": "as §2"}, "blackgrass": {"test_system": "blackgrass", "experiment": "Test B postemergence herbicide test", "type": "in vivo, Alopecurus myosuroides", "conditions": "scale 0 (no effect) to 100 (complete control); for Plant response rating, Blackgrass: Postemergence, 500 g ai/ha, visual rating after 13 to 15 days; for Blackgrass plant response rating: postemergence, 125 g ai/ha, visual rating", "procedure,_shortened": "(§3)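 Read-out: visual comparison with controls, scored 0 to 100, where 100 means complete control and 0 no effect. Formulated chemicals were applied postemergence to plants 2–18 cm tall (1- to 4-leaf), or to flooded-paddy plants at the 2-leaf stage, then held 13 to 15 days under glass.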"}, "wheat": {"test_system": "wheat", "experiment": "Test B postemergence herbicide test", "type": "in vivo, Triticum aestivum", "design": "key to Wheat plant response rating: 0 = no effect, 100 = complete control", "conditions": "scale 0 (no effect) to 100 (complete control); for Plant response rating, Wheat: Postemergence, 500 g ai/ha, visual rating after 13 to 15 days; for Wheat plant response rating: postemergence, 125 g ai/ha, visual rating", "procedure,_shortened": "(§4)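 Each value is a visual 0–100 response rating taken against controls 13 to 15 days after treatment in the greenhouse. Plants received formulated chemical postemergence at the 1- to 4-leaf stage or, in flooded paddy, at the 2-leaf stage.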"}, "wild oat": {"test_system": "wild oat", "experiment": "Test B postemergence herbicide test", "type": "in vivo, Avena fatua", "conditions": "scale 0 (no effect) to 100 (complete control); for Plant response rating, Oat, Wild: Postemergence, 500 g ai/ha, visual rating after 13 to 15 days; for Oat, Wild plant response rating: postemergence, 125 g ai/ha, visual rating", "procedure,_shortened": "as §4"}, "rice": {"test_system": "rice", "experiment": "Test B flooded paddy test", "type": "in vivo, Oryza sativa", "conditions": "1000 g ai/ha, visual rating, scale 0 to 100 (0 no effect, 100 complete control), 13 to 15 days", "procedure,_shortened": "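Treated at 2-leaf (paddy) or 1–4-leaf, 2–18 cm (postemergence); greenhouse 13–15 d; visual score vs control, 0 none to 100 complete control; dash = not tested.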"}, "[2]": {"test_system": "small flower umbrella sedge", "experiment": "Test B flooded paddy test", "type": "in vivo, Cyperus difformis", "conditions": "1000 g ai/ha, visual rating, scale 0 to 100 (0 no effect, 100 complete control), 13 to 15 days", "procedure,_shortened": "as §3"}, "ducksalad": {"test_system": "ducksalad", "experiment": "Test B flooded paddy test", "type": "in vivo, Heteranthera limosa", "conditions": "1000 g ai/ha, visual rating, scale 0 to 100 (0 no effect, 100 complete control), 13 to 15 days", "procedure,_shortened": "as §3"}, "barnyardgrass [3]": {"test_system": "barnyardgrass", "experiment": "Test B flooded paddy test", "type": "in vivo, Echinochloa crus-galli", "conditions": "1000 g ai/ha, visual rating, scale 0 to 100 (0 no effect, 100 complete control), 13 to 15 days", "procedure,_shortened": "as §3"}, "[4]": {"conditions": "Postemergence, 500 g ai/ha, visual rating after 13 to 15 days, scale 0 (no effect) to 100 (complete control)"}, "[5]": {"conditions": "Preemergence, 500 g ai/ha, scale 0 to 100"}, "[6]": {"conditions": "postemergence, 125 g ai/ha, visual rating, scale 0 (no effect) to 100 (complete control)"}, "[7]": {"conditions": "preemergence, 125 g ai/ha, 0 to 100 scale, 0 is no effect, 100 is complete control"}, "[8]": {"conditions": "125 g ai/ha, scale 0 (no effect) to 100 (complete control)"}, "[9]": {"conditions": "500 g ai/ha, visual rating 0-100, 0 no effect, 100 complete control, preemergence"}}}
{"smiles": "CCn1nc(C(C)(C)C)cc1C(=O)Nc1cccc(C(=O)OC)c1", "note": "[Compound 81]", "values": [{"measurement": "Plant response rating, Barnyardgrass", "setting": "barnyardgrass [1]; [4]", "value": 90}, {"measurement": "Barnyardgrass plant response rating", "setting": "barnyardgrass [1]; [5]", "value": 60}, {"measurement": "Barnyardgrass plant response rating", "setting": "barnyardgrass [1]; [6]", "value": 70}, {"measurement": "Plant response rating, Barnyardgrass", "setting": "barnyardgrass [1]; [7]", "value": 10}, {"measurement": "Plant response rating, Surinam Grass", "setting": "Surinam grass; [4]", "value": 60}, {"measurement": "Surinam Grass plant response rating", "setting": "Surinam grass; [8]", "value": 40}, {"measurement": "Plant response rating, Surinam Grass", "setting": "Surinam grass; [7]", "value": 0}, {"measurement": "Plant response rating, Cocklebur", "setting": "cocklebur; [4]", "value": 90}, {"measurement": "Cocklebur plant response rating", "setting": "cocklebur; [5]", "value": 0}, {"measurement": "Cocklebur plant response rating", "setting": "cocklebur; [6]", "value": 70}, {"measurement": "Plant response rating, Cocklebur", "setting": "cocklebur; [7]", "value": 0}, {"measurement": "Plant response rating, Foxtail, Giant", "setting": "giant foxtail; [4]", "value": 50}, {"measurement": "Foxtail, Giant plant response rating", "setting": "giant foxtail; [5]", "value": 60}, {"measurement": "Foxtail, Giant plant response rating", "setting": "giant foxtail; [6]", "value": 20}, {"measurement": "Plant response rating, Foxtail, Giant", "setting": "giant foxtail; [7]", "value": 10}, {"measurement": "Plant response rating, Lambsquarters", "setting": "lambsquarters; [4]", "value": 50}, {"measurement": "Lambsquarters plant response rating", "setting": "lambsquarters; [8]", "value": 0}, {"measurement": "Plant response rating, Lambsquarters", "setting": "lambsquarters; [7]", "value": 0}, {"measurement": "Plant response rating, Morningglory", "setting": "morningglory; [4]", "value": 30}, {"measurement": "Morningglory plant response rating", "setting": "morningglory; [8]", "value": 0}, {"measurement": "Plant response rating, Morningglory", "setting": "morningglory; [7]", "value": 10}, {"measurement": "Plant response rating, Pigweed", "setting": "pigweed; [4]", "value": 90}, {"measurement": "Pigweed plant response rating", "setting": "pigweed; [8]", "value": 50}, {"measurement": "Plant response rating, Pigweed", "setting": "pigweed; [7]", "value": 20}, {"measurement": "Plant response rating, Velvetleaf", "setting": "velvetleaf; [4]", "value": 90}, {"measurement": "Velvetleaf plant response rating", "setting": "velvetleaf; [8]", "value": 80}, {"measurement": "Plant response rating, Velvetleaf", "setting": "velvetleaf; [7]", "value": 0}, {"measurement": "Plant response rating, Blackgrass", "setting": "blackgrass", "value": 20}, {"measurement": "Blackgrass plant response rating", "setting": "blackgrass", "value": 0}, {"measurement": "Plant response rating, Wheat", "setting": "wheat", "value": 40}, {"measurement": "Wheat plant response rating", "setting": "wheat", "value": 20}, {"measurement": "Plant response rating, Oat, Wild", "setting": "wild oat", "value": 30}, {"measurement": "Oat, Wild plant response rating", "setting": "wild oat", "value": 20}, {"measurement": "Rice plant response rating", "setting": "rice", "value": 60}, {"measurement": "Sedge, Umbrella plant response rating", "setting": "[2]", "value": 80}, {"measurement": "Ducksalad plant response rating", "setting": "ducksalad", "value": 80}, {"measurement": "Barnyardgrass plant response rating", "setting": "barnyardgrass [3]", "value": 50}]}
{"smiles": "CC(=NO)c1cccc(NC(=O)c2cc(C(C)(C)C)nn2CC(F)(F)F)c1", "note": "[Compound 112]", "values": [{"measurement": "Plant response rating, Barnyardgrass", "setting": "barnyardgrass [1]; [9]", "value": 70}, {"measurement": "Plant response rating, Barnyardgrass", "setting": "barnyardgrass [1]; [4]", "value": 70}, {"measurement": "Barnyardgrass plant response rating", "setting": "barnyardgrass [1]; [6]", "value": 50}, {"measurement": "Plant response rating, Barnyardgrass", "setting": "barnyardgrass [1]; [7]", "value": 50}, {"measurement": "Plant response rating, Surinam Grass", "setting": "Surinam grass; [9]", "value": 20}, {"measurement": "Plant response rating, Surinam Grass", "setting": "Surinam grass; [4]", "value": 20}, {"measurement": "Surinam Grass plant response rating", "setting": "Surinam grass; [8]", "value": 20}, {"measurement": "Plant response rating, Surinam Grass", "setting": "Surinam grass; [7]", "value": 20}, {"measurement": "Plant response rating, Cocklebur", "setting": "cocklebur; [9]", "value": 0}, {"measurement": "Plant response rating, Cocklebur", "setting": "cocklebur; [4]", "value": 100}, {"measurement": "Cocklebur plant response rating", "setting": "cocklebur; [6]", "value": 60}, {"measurement": "Plant response rating, Cocklebur", "setting": "cocklebur; [7]", "value": 0}, {"measurement": "Plant response rating, Foxtail, Giant", "setting": "giant foxtail; [9]", "value": 20}, {"measurement": "Plant response rating, Foxtail, Giant", "setting": "giant foxtail; [4]", "value": 30}, {"measurement": "Foxtail, Giant plant response rating", "setting": "giant foxtail; [6]", "value": 20}, {"measurement": "Plant response rating, Foxtail, Giant", "setting": "giant foxtail; [7]", "value": 10}, {"measurement": "Plant response rating, Lambsquarters", "setting": "lambsquarters; [9]", "value": 90}, {"measurement": "Plant response rating, Lambsquarters", "setting": "lambsquarters; [4]", "value": 100}, {"measurement": "Lambsquarters plant response rating", "setting": "lambsquarters; [8]", "value": 90}, {"measurement": "Plant response rating, Lambsquarters", "setting": "lambsquarters; [7]", "value": 0}, {"measurement": "Plant response rating, Morningglory", "setting": "morningglory; [9]", "value": 60}, {"measurement": "Plant response rating, Morningglory", "setting": "morningglory; [4]", "value": 30}, {"measurement": "Morningglory plant response rating", "setting": "morningglory; [8]", "value": 20}, {"measurement": "Plant response rating, Morningglory", "setting": "morningglory; [7]", "value": 0}, {"measurement": "Plant response rating, Pigweed", "setting": "pigweed; [9]", "value": 90}, {"measurement": "Plant response rating, Pigweed", "setting": "pigweed; [4]", "value": 100}, {"measurement": "Pigweed plant response rating", "setting": "pigweed; [8]", "value": 90}, {"measurement": "Plant response rating, Pigweed", "setting": "pigweed; [7]", "value": 0}, {"measurement": "Plant response rating, Velvetleaf", "setting": "velvetleaf; [9]", "value": 50}, {"measurement": "Plant response rating, Velvetleaf", "setting": "velvetleaf; [4]", "value": 70}, {"measurement": "Velvetleaf plant response rating", "setting": "velvetleaf; [8]", "value": 30}, {"measurement": "Plant response rating, Velvetleaf", "setting": "velvetleaf; [7]", "value": 0}, {"measurement": "Plant response rating, Blackgrass", "setting": "blackgrass", "value": 20}, {"measurement": "Blackgrass plant response rating", "setting": "blackgrass", "value": 20}, {"measurement": "Plant response rating, Wheat", "setting": "wheat", "value": 30}, {"measurement": "Wheat plant response rating", "setting": "wheat", "value": 20}, {"measurement": "Plant response rating, Oat, Wild", "setting": "wild oat", "value": 40}, {"measurement": "Oat, Wild plant response rating", "setting": "wild oat", "value": 40}, {"measurement": "Rice plant response rating", "setting": "rice", "value": 70}, {"measurement": "Sedge, Umbrella plant response rating", "setting": "[2]", "value": 80}, {"measurement": "Ducksalad plant response rating", "setting": "ducksalad", "value": 80}, {"measurement": "Barnyardgrass plant response rating", "setting": "barnyardgrass [3]", "value": 50}]}
